Test results taken from patent publication US4232121A, “Process for selecting methine dyes which inhibit cell growth” (Eastman Kodak Company, priority 1978, dated 1980).
Read-outs that look alike come from different tables or passages of the source.

Columns and labels:
[1] = not told
Description: If a published reduction potential is not available, suitable techniques for measuring reduction potential are available and can be used. […] This technique involves measurement at 20° C., of an approximately 10^-4 molar solution of the dye in an electrolyte, such as methanol which is 0.05 molar in lithium chloride, using a dropping mercury electrode. The potential values are reported by reference to a silver-silver chloride electrode in a saturated solution of potassium chloride at 20° C.

[2] = Oxidation potential (Eox) of the dye; assay type: physicochemical; settings: Tables I, II, V, VI
[3] = test system: Bacillus pumilus strain K-1; test: Inhibition of bacterial growth, filter paper on inoculated agar plates; assay type: cell-based; settings: for zone of inhibition at 1000 µM / zone of inhibition at 100 µM: Bacillus pumilus, read-out: Diameter of Inhibition
Description: Nutrient broth was prepared by mixing 8 grams of BACTO dehydrated nutrient broth per liter of distilled water. […] Samples of the nutrient broth were then inoculated with Bacillus pumilus strain K-1 culture. […]
Nutrient agar was prepared by mixing 23 grams of BACTO nutrient agar per liter of distilled water. The nutrient agar was sterilized in the same way as the nutrient broth. After it has cooled to about 45° C. 250 ml of the nutrient agar solution was aeseptically inoculated with 5 ml of the Bacillus pumilus, K-1 culture prepared in (A), above. Plates of the inoculated nutrient agar were then poured and allowed to harden.
[…] To minimize possible photocatalyzed reactions of the dyes, all preparations were performed under yellow lights and all incubations were performed in the dark.
Schleider and Schuell #740-E filter paper (12.7 mm diameter) was dipped in the dye solution, touched to the side of the beaker to removed excess dye, and placed in the center of the inoculated agar plates (prepared in (B) above). […] The plates were then examined to determine if bacterial growth had been affected by the dye-containing filter paper. […]
Control plates were prepared in which the filter paper contained methanol or a 0.2 molar aqueous solution of phenol. […]

[4] = test system: Bacillus pumilus (K-1)
Description: This can be accomplished by contacting a given concentration of the dye with the cells, removing the cells from the dye solution and then comparing the optical density (at λmax) of the remaining dye solution with a control containing the original concentration of the dye. The percentage decrease in optical density indicates the percentage of dye which has been bound to the cells.
The culture was collected by centrifugation at 5,000×g. for 10 minutes, and the resultant pellet was washed several times in cold 0.05 M potassium phosphate buffer, pH 7.0. The pellet was resuspended in the buffer solution to a final optical density of 1.0 at 620 nm as measured with a Bausch and Lomb Spectronic 20.
One-tenth ml of dye solution (1 mg/ml in methanol) was added to a tube containing 5 ml of cell suspension described above and a control tube containing 0.05 M potassium phosphate buffer, pH 7.0. All tubes were well agitated using a Vari-Whirl Mixer (Will Scientific Co.) and then centrifuged at 10,000×g. for 10 minutes.
The percent binding of dye to the cells for each dye, was determined by comparison of the density at λmax of the control supernatant sample with the density at λmax of the supernatant of the cell sample.

[5] = test system: Sea Urchin Eggs; test: Inhibition of cell division in fertilized sea urchin eggs; assay type: cell-based; settings: arbitrary scale 0 to 5, 5 most active; dye 10^-5 to 10^-6 molar, 60 minutes after fertilization
Description: To suspensions in filtered sea water of fertilized sea urchin eggs there was added, three minutes after fertilization, methanolic solutions of the dyes in an amount sufficient to yield a final concentration of dye of between 10^-5 and 10^-6 molar. The final concentration of methanol was, at a maximum 1×10^-4 molar. The eggs were visually observed at 60 minutes after fertilization to determine if cell division and the formation of mitotic apparatus had been inhibited. A rating was assigned based on the concentration of dye required to inhibit cell division and synthesis of DNA.

[6] = K1, 72 h, Tables V and VI, 10^-3 molar, three days
[7] = K1, Table II, 10^-4 molar, 26° C., forty-eight hours
[8] = Table II, 10^-4 molar, 26° C., forty-eight hours

Structure (SMILES)	ER [1]	Eox [2]	reduction potential (ER) [1]	% Bound [4]	Activity Rating [3]	Sea Urchin Eggs Activity [5]	further results
CCN1C(=CC=Cc2oc3ccc(C)cc3[n+]2CC)Oc2ccc(C)cc21 [7,5,5'-dimethyl]	-1.28	+.96					zone of inhibition at 1000 µM [3, 6]: 27 mm
CCN1C(=CC=Cc2oc3ccc(C)cc3[n+]2CC)Oc2ccc(C)cc21 [Dye 5]			-1.28 volts	97.6%	65	+4	zone of inhibition at 1000 µM ([3]; K1, Table IX, 10^-3 M): 27 mm
CCN1C(=CN=Nc2sc3ccccc3[n+]2CC)Sc2ccccc21 [Dye 26]		> +1.00	-0.64 volts	56.3%	8	+2	zone of inhibition at 100 µM [3, 7]: 14.5 mm; zone of inhibition at 100 µM ([3]; K1, Table IX, 10^-4 M): 14.5 mm
CCN1C(=CC=Cc2oc3cc(Cl)ccc3[n+]2CC)Oc2cc(Cl)ccc21 [7,6,6'-dichloro]	-1.17	+1.07					zone of inhibition at 1000 µM [3, 6]: 28.5 mm
CCN1C(=CC=Cc2oc3cc(OC)ccc3[n+]2CC)Oc2cc(OC)ccc21 [Dye 4]			-1.31 volts	97.2%	71	+4	zone of inhibition at 1000 µM ([3]; K1, Table IX, 10^-3 M): 28.5 mm
CCC(=Cc1sc2ccc(Cl)cc2[n+]1CC)C=C1Sc2ccc(Cl)cc2N1CC [Dye 15]	-1.06		-1.06 volts	74.9%	04	+4	zone of inhibition at 100 µM [3, 7]: 13.5 mm; zone of inhibition at 100 µM ([3]; K1, Table IX, 10^-4 M): 13.5 mm
CCN1C(=CC=Cc2oc3cc(OC)ccc3[n+]2CC)Oc2cc(OC)ccc21 [7,6,6'-dimethoxy]	-1.31	+.84					zone of inhibition at 1000 µM [3, 6]: 28.5 mm
CCN1C(=CC=Cc2oc3cc(S(=O)(=O)[O-])ccc3[n+]2CC)Oc2cc(S(=O)(=O)O)ccc21 [7,6,6'-disulfo]	-1.26	+1.00					Diameter of Inhibition ([3]; Tables V and VI, 10^-3 molar, three days): None
CCN1C(=CC=Cc2oc3ccc(S(=O)(=O)O)cc3[n+]2CC)Oc2ccc(S(=O)(=O)[O-])cc21 [Dye 6]			-1.27 volts	3.3%	0		Diameter of Inhibition ([3]; Table IX, 10^-3 M): None
CCN1C(=Cc2sc3ccccc3[n+]2C)C=Cc2ccccc21 [Dye 14]	-1.08		-1.08 volts	58.3%	11		zone of inhibition at 100 µM [3, 7]: 15 mm; zone of inhibition at 100 µM ([3]; K1, Table IX, 10^-4 M): 15 mm
CCN1C(=CC=Cc2oc3cc(Cl)ccc3[n+]2CC)Oc2cc(Cl)ccc21 [Dye 9]	-1.18		-1.18 volts	95.1%	71		zone of inhibition at 1000 µM ([3]; K1, Table IX, 10^-3 M): 30.5 mm
CCN1C(=CC=Cc2sc3ccc(Cl)cc3[n+]2CC)Sc2ccc(Cl)cc21 [Dye 20]			-0.86 volts	76.3%	9	+3	zone of inhibition at 1000 µM ([3]; K1, Table IX, 10^-3 M): 14 mm
CCN1C(=CC=Cc2sc3ccc(Cl)cc3[n+]2CC)Sc2ccc(Cl)cc21 [17,5,5'-dichloro]	-.86	+.85					zone of inhibition at 1000 µM [3, 6]: 14 mm
CCN1C(=Cc2ccc3ccccc3[n+]2CC)Sc2cc([N+](=O)[O-])ccc21 [Dye 28]			-0.60 volts	57.3%	0		Diameter of Inhibition [3, 8]: None; Diameter of Inhibition ([3]; Table IX, 10^-4 M): None

More lines, main results first:

ER [1]	Eox [2]	reduction potential (ER) [1]	% Bound [4]	Structure (SMILES)	Activity Rating [3]	Sea Urchin Eggs Activity [5]	further results
-1.35		-1.35 volts	11.2%	CCN1C(=CC=Cc2scc(-c3ccccc3)[n+]2CC)SC=C1c1ccccc1 [Dye 3]	29	+5	zone of inhibition at 100 µM ([3]; K1, Table I, 10^-4 molar, 26° C., fifty hours, dark): 18.5 mm; zone of inhibition at 100 µM [3, 7]: 19 mm; zone of inhibition at 100 µM ([3]; K1, Table IX, 10^-4 M): 19 mm
	> +1.00	-0.41 volts	54.2%	Cn1c(-c2ccccc2)c(C=Cc2sc3cc([N+](=O)[O-])c(Cl)cc3[n+]2C)c2ccccc21 [Dye 31]	0	0	Diameter of Inhibition [3, 8]: None; Diameter of Inhibition ([3]; Table IX, 10^-4 M): None
			100%	CCN1C(=CC=Cc2sc3cc4ccccc4cc3[n+]2CC)Sc2cc3ccccc3cc21 [Dye 19]		0	
		-0.65 volts	92.6%	Clc1ccc2nc3c(nc2c1)N(c1ccccc1)C(=CC=Cc1n(-c2ccccc2)c2nc4ccc(Cl)cc4nc2[n+]1-c1ccccc1)N3c1ccccc1 [Dye 25]		0	
		-0.11 volts	75.0%	Cn1c(-c2ccccc2)c(C=CC=C2C(c3ccccc3)=[N+](C)c3c2ccc2ccccc32)c2ccc3ccccc3c21 [Dye 34]	0	0	Diameter of Inhibition ([3]; Table I, 10^-4 molar, 26° C., fifty hours, dark): None; Diameter of Inhibition [3, 8]: None; Diameter of Inhibition ([3]; Table IX, 10^-4 M): None
-1.60		-1.60 volts	31.8%	CCN1C(=Cc2sc3ccc4ccccc4c3[n+]2CC)Sc2ccc3ccccc3c21 [Dye 2]	0		Diameter of Inhibition [3, 8]: None; Diameter of Inhibition ([3]; Table IX, 10^-3 M): None; Diameter of Inhibition ([3]; Table IX, 10^-4 M): None
	> +1.00	-0.63 volts		CCN1C(=CC=Cc2sc3cc4ccccc4nc3[n+]2CC)Sc2cc3ccccc3nc21 [Dye 27]	0	0	Diameter of Inhibition [3, 8]: None; Diameter of Inhibition ([3]; Table IX, 10^-4 M): None
-1.03		-1.03 volts	28.7%	CCN1C(=Cc2ccc3ccccc3[n+]2CC)C=Cc2ccccc21 [Dye 16]	100	+5	zone of inhibition at 100 µM [3, 7]: 25.5 mm; zone of inhibition at 100 µM ([3]; K1, Table IX, 10^-4 M): 25.5 mm
